In patent publication US20230123334A1, “AMINO LIPID COMPOUND, PREPARATION METHOD THEREFOR, AND APPLICATION THEREOF” (SHENZHEN SHENXIN BIOTECHNOLOGY CO., LTD., priority 2020, published 2023):

Test system: HEK293 cells
Assay: Preliminary screening as DNA vectors, GFP transfection of HEK293 cells
Format: cell-based
Conditions: amino lipid/DOPE liposome with 75 ng plasmid DNA (psin-EGFP-IRES-Puro); number of GFP-expressing cells divided by total nuclei (Hoechst)
Method in brief: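 HEK293 cells in DMEM/10% FBS transfected with 75 ng EGFP plasmid per well complexed with amino lipid/DOPE liposomes in pH 5.6 sodium acetate. Hoechst nuclear stain added 20-24 h post-transfection, then cells cultured another 20-24 h. Confocal imaging gives GFP-positive cells as % of total nuclei.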

Compound | Absolute DNA transfection efficiency in HEK293 cells [%]
CCCCCCCCNc1nc(NCCCN(C)C)nc(SCCCCCC)n1 [S6N8 D6] | 0.6
CCCCCCCCCCCCCCCCCCNc1nc(NCCN2CCCC2)nc(SCCCCCCCCCCCC)n1 [S12N18 D3] | 3.9
CCCCCCCCCCCCCCCCCCSc1nc(NCCCN(C)C)nc(SCCCCCCC)n1 [S7S18 D6] | 5.5
CCCCCCCCCCCCCCCNc1nc(NCCCN2CCN(C)CC2)nc(SCCCCCCCCC)n1 [S9N15 D9] | 10.9
CCCCCCCNc1nc(NCCN2CCCC2)nc(SCCCCCC)n1 [S6N7 D3] | 0.0
CCCCCCCCCCCCN(CCCCCCCCCCCC)c1nc(NCCN2CCN(C)CC2)nc(SCCCCCCCCCCC)n1 [S11^2N12 D5] | 0.1
CCCCCCCCCCCCCCCCCCNc1nc(NCCN2CCN(C)CC2)nc(SCCCCCCCCCCC)n1 [S11N18 D5] | 9.3
CCCCCCCCCCCCCCCCSc1nc(NCCCCCCC)nc(NCCN2CCN(C)CC2)n1 [S16N7 D5] | 10.1
CCCCCCCCCCCCSc1nc(NCCN(C)C)nc(SCCCCCCCC)n1 [S8S12 D1] | 10.7
CCCCCCCCCCCCCCSc1nc(NCCCCCCCCCCCC)nc(NCC2CCN(C)CC2)n1 [S14N12 D10] | 5.8
CCCCCCCCCCCCCNc1nc(NCCN2CCN(C)CC2)nc(SCCCCCCCCC)n1 [S9N13 D5] | 27.9
CCCCCCCCCCCCCCCCSc1nc(NCCCCCCCCCCCCCCC)nc(NCCCN2CCN(C)CC2)n1 [S16N15 D9] | 0.3
CCCCCCCCCCCCCNc1nc(NCCN(C)C)nc(SCCCCCC)n1 [S6N13 D1] | 6.5
CCCCCCCCCCSc1nc(NCCCCCCCCC)nc(NCCCN2CCOCC2)n1 [S10N9 D8] | 3.4
CCCCCCCCCCCCCCSc1nc(NCCCCCCC)nc(NCCN2CCOCC2)n1 [S14N7 D2] | 18.7
CCCCCCCCCCCCCCCCCCNc1nc(NCCN(C)C)nc(SCCCCCCCCCCCC)n1 [S12N18 D1] | 0.7
CCCCCCCCCCCCNc1nc(NCCN2CCCC2)nc(SCCCCCC)n1 [S6N12 D3] | 6.2
CCCCCCCCCCCCN(CCCCCCCCCCCC)c1nc(NCCN2CCN(C)CC2)nc(SCCCCCCCCCC)n1 [S10^2N12 D5] | 0.9
CCCCCCCCCCCNc1nc(NCCN2CCCCC2)nc(SCCCCCCCCCC)n1 [S10N11 D4] | 8.7
CCCCCCCCCCCNc1nc(NCCN2CCN(C)CC2)nc(SCCCCCCCCCCC)n1 [S11N11 D5] | 10.1
CCCCCCCCCCCCCCCCNc1nc(NCCCN2CCOCC2)nc(SCCCCCCCCCCCC)n1 [S12N16 D8] | 0.0
CCCCCCCCCCCCCCCCCCNc1nc(NCCN2CCOCC2)nc(SCCCCCCCCCCCCCCCCCC)n1 [S18N18 D2] | 0.1
CCCCCCCCCCCCN(CCCCCCCCCCCC)c1nc(NCCCN2CCOCC2)nc(SCCCCCCC)n1 [S7^2N12 D8] | 0.0
CCCCCCCCCCCCSc1nc(NCCCCCCCCC)nc(NCCN2CCCCC2)n1 [S12N9 D4] | 0.1

Compound | Absolute DNA transfection efficiency in HEK293 cells [%]
CCCCCCCCSc1nc(NCCN(CC)CC)nc(SCCCCCCCC)n1 [S8S8 D7] | 10.1
CCCCCCNc1nc(NCCCN(C)C)nc(SCCCCCC)n1 [S6N6 D6] | 0.0
CCCCCCCCCSc1nc(NCCCN2CCN(C)CC2)nc(SCCCCCC)n1 [S6S9 D9] | 8.4
CCCCCCCSc1nc(NCCN2CCCCC2)nc(SCCCCCCC)n1 [S7S7 D4] | 0.0
CCCCCCCCCCCCCCSc1nc(NCCCCCCCC)nc(NCCN(CC)CC)n1 [S14N8 D7] | 1.6
CCCCCCCCCCCCCCCCCCSc1nc(NCCCCCCCCCCCC)nc(NCCN(CC)CC)n1 [S18N12 D7] | 0.5
CCCCCCCCCCCCCCCCCCNc1nc(NCC2CCN(C)CC2)nc(SCCCCCCCCCC)n1 [S10N18 D10] | 3.8
CCCCCCCCCCCCCCSc1nc(NCCCCCCCCCCCC)nc(NCCN2CCOCC2)n1 [S14N12 D2] | 1.6
CCCCCCCCCCCCCCCCCCSc1nc(NCCCCCCCCCCC)nc(NCCN2CCCC2)n1 [S18N11 D3] | 4.2
CCCCCCCCCCCNc1nc(NCCN2CCOCC2)nc(SCCCCCCCCCCC)n1 [S11N11 D2] | 6.3
CCCCCCCCCCCCCCSc1nc(NCCCCCCCCCCCCC)nc(NCCCN2CCOCC2)n1 [S14N13 D8] | 0.3
CCCCCCCCCCCCCCCCCCSc1nc(NCCCCCCCCCCCCC)nc(NCCCN2CCOCC2)n1 [S18N13 D8] | 0.0
CCCCCCCCCCCNc1nc(NCCCN2CCN(C)CC2)nc(SCCCCCCCCCC)n1 [S10N11 D9] | 10.8
CCCCCCCCNc1nc(NCCCN2CCN(C)CC2)nc(SCCCCCCC)n1 [S7N8 D9] | 14.9
CCCCCCCCCCCCSc1nc(NCCCN2CCN(C)CC2)nc(SCCCCCCC)n1 [S7S12 D9] | 4.8
CCCCCCCCCCCCCCCCCCNc1nc(NCC2CCN(C)CC2)nc(SCCCCCCC)n1 [S7N18 D10] | 16.3
CCCCCCCCCCCCCCCNc1nc(NCCN(CC)CC)nc(SCCCCCCCCCC)n1 [S10N15 D7] | 1.7
CCCCCCCCCCCCCCCCSc1nc(NCCCCCCCCC)nc(NCCCN2CCOCC2)n1 [S16N9 D8] | 6.7
CCCCCCCCCCCCN(CCCCCCCCCCCC)c1nc(NCCCN2CCN(C)CC2)nc(SCCCCCCCC)n1 [S8^2N12 D9] | 0.7
CCCCCCCCCCCCSc1nc(NCCCCCCCC)nc(NCCN2CCOCC2)n1 [S12N8 D2] | 0.1
CCCCCCCCCCCCCCCCSc1nc(NCCN2CCN(C)CC2)nc(SCCCCCCC)n1 [S7S16 D5] | 7.9
CCCCCCCCCSc1nc(NCCN2CCOCC2)nc(SCCCCCC)n1 [S6S9 D2] | 9.1
CCCCCCCCCCCCSc1nc(NCCCN(C)C)nc(N(CCCCCCCCCCCC)CCCCCCCCCCCC)n1 [S12^2N12 D6] | 0.3
CCCCCCCCCCCCCCCCCCNc1nc(NCCN2CCCCC2)nc(SCCCCCCCCC)n1 [S9N18 D4] | 9.0

Compound | Absolute DNA transfection efficiency in HEK293 cells [%]
CCCCCCCCCCCCCCCCNc1nc(NCCCN(C)C)nc(SCCCCCCCCCCCCCCC)n1 [S15N16 D6] | 0.0
CCCCCCCCNc1nc(NCCCN2CCOCC2)nc(SCCCCCCCC)n1 [S8N8 D8] | 2.9
CCCCCCCCCCCCCCCCSc1nc(NCCCCCCCCCCCCCCC)nc(NCCN2CCOCC2)n1 [S16N15 D2] | 0.0
CCCCCCCSc1nc(NCCCCCC)nc(NCCN2CCOCC2)n1 [S7N6 D2] | 1.8
CCCCCCCSc1nc(NCCCCCC)nc(NCCN2CCN(C)CC2)n1 [S7N6 D5] | 28.5
CCCCCCCCCCCCCCCCSc1nc(NCCCCCCCC)nc(NCCN2CCN(C)CC2)n1 [S16N8 D5] | 6.7
CCCCCCCCCCCCSc1nc(NCCCCCC)nc(NCCN(CC)CC)n1 [S12N6 D7] | 6.5
CCCCCCCCCCSc1nc(NCCCCCCCCC)nc(NCCN2CCOCC2)n1 [S10N9 D2] | 3.7
CCCCCCCCCCCCCCCCCCNc1nc(NCCCN2CCN(C)CC2)nc(SCCCCCC)n1 [S6N18 D9] | 14.1
CCCCCCCCCCCCCCCNc1nc(NCCN2CCN(C)CC2)nc(SCCCCCCC)n1 [S7N15 D5] | 20.4
CCCCCCCCCCCCCCCCSc1nc(NCCCCCCCCCCCCCCC)nc(NCCN2CCCC2)n1 [S16N15 D3] | 0.0
CCCCCCCCCSc1nc(NCCN2CCN(C)CC2)nc(SCCCCCC)n1 [S6S9 D5] | 13.7
CCCCCCCCCCCCCCCSc1nc(NCCCCCCCCCCC)nc(NCCN2CCCC2)n1 [S15N11 D3] | 20.9
CCCCCCCCCCCCCCCSc1nc(NCCCCCCCCCCCCC)nc(NCCN(C)C)n1 [S15N13 D1] | 0.4
CCCCCCCCCCCCCCCSc1nc(NCCCCCC)nc(NCCN2CCOCC2)n1 [S15N6 D2] | 34.1
CCCCCCCCCCCCCCCCCCSc1nc(NCCCCCCCCCCC)nc(NCC2CCN(C)CC2)n1 [S18N11 D10] | 2.7
CCCCCCCSc1nc(NCCCCCC)nc(NCCN(C)C)n1 [S7N6 D1] | 17.6
CCCCCCCCCCCCCCSc1nc(NCCCCCCCCC)nc(NCCN2CCCCC2)n1 [S14N9 D4] | 2.0
CCCCCCCCCCCCCCCCCCNc1nc(NCCN2CCCC2)nc(SCCCCCCCCC)n1 [S9N18 D3] | 33.8
CCCCCCCCCCCNc1nc(NCCCN2CCN(C)CC2)nc(SCCCCCCCCCCC)n1 [S11N11 D9] | 4.9
CCCCCCCCCCCCCCCCCCNc1nc(NCCN2CCOCC2)nc(SCCCCCCCCCCCC)n1 [S12N18 D2] | 0.0
CCCCCCCCCCCNc1nc(NCCN(C)C)nc(SCCCCCCCCCC)n1 [S10N11 D1] | 4.8
CCCCCCCCCCCCCCCSc1nc(NCC2CCN(C)CC2)nc(SCCCCCCC)n1 [S7S15 D10] | 33.3
CCCCCCCCCCCNc1nc(NCC2CCN(C)CC2)nc(SCCCCCCCCC)n1 [S9N11 D10] | 42.5
